The source of these data is patent US20100130620A1, “NOVEL USE OF HYDROXYTYROSOL AND OLIVE EXTRACTS/CONCENTRATES CONTAINING IT” (priority 2007, published 2010).

The subject of one series is ARPE-19 cells. The experiment in a line: JC-1 assay for mitochondrial membrane potential. The note with it: 10-100 μM HTS, no acrolein. It is filed as cell-based, human. How it is done: (§1) The human ARPE-19 cells (a human retinal pigment epithelial cell-line) were maintained in DMEM-F12 medium (Dulbecco's modified Eagle's medium) supplemented with 10% fetal bovine serum, 0.348% sodium bicarbonate, 2 mM L-glutamine, 100 U/mL penicillin and 100 μg/ml streptomycin. Cell cultures were maintained at 37° C. in a humidified atmosphere of 95% air and 5% CO2. The medium was changed every 3 to 4 days. ARPE-19 cells were used within 10 generations.
All experiments were performed with an 80% confluence monolayer grown in 96-well plates or 6 well plates. Hydroxytyrosol (HTS) was dissolved in DMSO (dimethyl sulfoxide). Acrolein was dissolved in PBS (phosphate buffer salt) each time immediately before an experiment. For the acute toxicity study, cells were exposed to acrolein for 24 hours. […]
Mitochondrial potential change (ΔΨ) was assessed in live APRE-19 cells using the lipophilic cationic probe 5,5′,6,6′-tetrachloro-1,1′,3,3′-tetraethylbenzimidazol-carbocyanine iodine (JC-1). For quantitative fluorescence measurement, cells were rinsed once after JC-1 staining and scanned with a multi-label counter (Wallac 1420; PerkinElmer Life Sciences, Wellesley, Mass.) at 485 nm excitation and 535 nm and 590 nm emission, to measure green and red JC-1 fluorescence respectively. […]

The subject of a further series is human ARPE-19 cells. It counts as cell-based. The procedure:
as §1
All experiments were performed with an 80% confluence monolayer grown in 96-well plates or 6 well plates. Hydroxytyrosol (HTS) was dissolved in DMSO (dimethyl sulfoxide). Acrolein was dissolved in PBS (phosphate buffer salt) each time immediately before an experiment. For the acute toxicity study, cells were exposed to acrolein for 24 hours. The protective effects of HTS (Hydroxytyrosol) were studied with the acute toxicity model by pre-treating cells with HTS for 48 hours or for 7 days.
The MTT assay reduction assay was used as a […] index of cell viability. The optical densities were read at 555 nm using a microplate spectrophotometer (Spectra Max 340, Molecular Dabices, Sunnyvale, Calif.). Absorbance values were normalized with untreated cells to calculate the changes in cell viability.
The ARPE-19 cells were seeded at 4×10^4 per well in a 96 well plate. […]

Turning to `OCCc1ccc(O)c(O)c1` [HTS, 3,4-dihydroxyphenyl ethanol], in the series on ARPE-19 cells, the “effect of HTS itself on mitochondrial membrane potential” value is “no apparent effect on mitochondrial membrane potential”. Further, the “effect of HTS itself on cell viability” value in the series with human ARPE-19 cells (10-100 μM HTS, ARPE-19, no acrolein, FIG. 1) is given as “no apparent effect on cell viability”. For the same compound, the “HTS concentration range protecting against acute acrolein-induced decrease in cell viability” value in the series with human ARPE-19 cells (pretreatment, 75 μM acrolein 24 hours) was 10 to 20 µM.
